Source: article PMC9959676 (Molecules, 2023)
Read-outs that look alike come from different tables or passages of the source.

Experiments:
[1] = DPPH free radical scavenging assay; conditions: 1.0 mL sample 0.5 mg/mL + 2 mL DPPH 0.2 mg/mL, 30 min, 517 nm
Protocol: The DPPH assay was carried out to estimate the antioxidant potential among all the compounds [29]. Then, 2 mL (0.2 mg/mL in methyl alcohol) of DPPH was mixed with 1.0 mL (0.5 mg/mL in methyl alcohol) of the sample solution in a test tube. All the reaction tubes were covered with aluminum foil and kept aside for 30 min to complete the reaction. The activity was carried out in a dark room. […] A UV-visible spectrophotometer was employed to observe a reduction in the concentration of free radicals at 517 nm. The absorbance of the control (1.0 mL methanol + 2 mL DPPH solution) was also measured. All samples were evaluated in a triplicate manner, and the mean results were recorded. The standard antioxidant (ascorbic acid) was evaluated and set as a reference/standard. The percentage of inhibition (%) was calculated using the following formula in terms of scavenging activity(S):S (%) = [(Ab − Aa)/Ab] × 100(1) where Ab = Absorbance of control; and Aa = Absorbance of the test sample

thoracic aorta segments = test: Inhibition of phenylephrine-induced contraction on isolated aorta rings; design: species or system male Wistar rats; conditions: compounds 10^−4 M in organ bath, phenylephrine 10^−6 M, n = 5
Protocol: (§1) Cervical disruption was used to eliminate male Wistar rats weighing 200 g and 300 g. The thoracic aorta segments (3 mm to 5 mm) were slightly pressed and […]. The tissues were placed in an organ bath filled with 10 mL of Krebs-Henseleit solution and kept at 37 °C. Then 95% oxygen and 5% carbon dioxide were passed through the above-mentioned solution. To record organ responses to phenylephrine, (10^−6 M) (Sigma, St. Louis, MO, USA) simulated contractions; isometric transducers and Gemini recorders (Ugo Basile, Varese, Italy) were assembled. Aortic rings were recon traced with phenylephrine (10^−6 M) and subjected to acetylcholine (10^−6 M) for recording endothelium-dependent relaxations (EDR). All synthesized compounds along with the standard (valsartan) were mixed in DMSO; whereas synthesized derivatives of concentration 10^−4 M were added in an organ bath. In conscious rats, systolic blood pressure was recorded by applying the tail-cuff method. Wistar rats of 200 g to 250 g weight were selected and divided into groups of five individuals. The chemicals were injected intraperitoneally at a dosage of 80 mg/kg body weight. The tail-cuff and a piezoelectric pulse sensor were coupled to a blood pressure analyzer and were positioned at the base of the tail (May 9610, Ankara, Turkey).
(§2) All results were presented as the mean of SEM. (n = 5) and test compounds were employed for statistical significance determination.

conscious rats = test: Antihypertensive effect, systolic blood pressure by tail-cuff method in conscious rats; type: in vivo, Wistar rats; conditions: 80 mg/kg intraperitoneally, n = 5, Control 108.28 ± 6.87, DMSO 81.10 ± 3.21
Protocol: as §1, §2

urease = urease (Canavalia ensiformis, UniProt P07374); test: biochemical; type: biochemical
urease, sequence (P07374 whole entry, looked up): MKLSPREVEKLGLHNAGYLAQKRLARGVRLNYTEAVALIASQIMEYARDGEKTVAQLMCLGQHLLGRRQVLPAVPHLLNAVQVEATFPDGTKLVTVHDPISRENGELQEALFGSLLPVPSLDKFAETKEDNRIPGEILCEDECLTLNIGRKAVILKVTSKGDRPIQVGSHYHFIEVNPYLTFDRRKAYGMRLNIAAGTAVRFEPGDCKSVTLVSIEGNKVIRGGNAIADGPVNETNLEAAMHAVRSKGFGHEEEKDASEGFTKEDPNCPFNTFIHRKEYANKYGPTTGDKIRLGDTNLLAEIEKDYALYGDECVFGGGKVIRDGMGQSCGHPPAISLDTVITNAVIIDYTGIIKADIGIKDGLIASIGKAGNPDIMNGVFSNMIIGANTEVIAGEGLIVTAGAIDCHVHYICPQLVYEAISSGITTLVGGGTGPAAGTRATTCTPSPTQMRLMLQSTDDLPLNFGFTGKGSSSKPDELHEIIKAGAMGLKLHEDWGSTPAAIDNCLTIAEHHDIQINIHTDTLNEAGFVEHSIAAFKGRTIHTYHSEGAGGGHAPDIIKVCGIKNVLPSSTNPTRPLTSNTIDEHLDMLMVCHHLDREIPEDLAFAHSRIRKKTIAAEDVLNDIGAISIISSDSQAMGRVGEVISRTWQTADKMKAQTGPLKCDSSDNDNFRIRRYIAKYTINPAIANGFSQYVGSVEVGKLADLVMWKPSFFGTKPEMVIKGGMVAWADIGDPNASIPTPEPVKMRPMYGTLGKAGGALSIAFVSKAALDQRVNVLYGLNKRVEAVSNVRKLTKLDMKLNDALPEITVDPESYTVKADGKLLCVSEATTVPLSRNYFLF
Protocol: The activity performed was an improved procedure of the Berthelot assay. […] For 5 min, the mixture was incubated at 37 °C. Each well in a 96-well plate received 40 µL of urea stock solution (20 mM); incubated for 10 min at 37 °C. Afterwards, 115 µL phenol hypochlorite (45 µL phenol + 70 µL alkali) per well was added. Furthermore, all the contents were incubated for 10 min at 37 °C. Absorbance at 625 nm was measured. Using the provided formula, the % of enzyme-inhibition and IC-50 values were computed Inhibition (%age) = [Control − test/100(control)] where Control = [Total enzyme activity minus inhibitor]. The test is the test compounds’ activity

Bacillus pumilus = test: Antibacterial agar-well diffusion; type: cell-based; conditions: sample 100 mg/5 mL in DMSO; ceftriaxone sodium 20 mg/10 mL; 37 °C, 24 h; 6 mm wells
Protocol: (§3) After sterilizing the Mueller Hinton agar medium on plates in an autoclave and allowing it to cool to roughly 45 °C, a 100 µL standard inoculum was aseptically mixed, chilled till 37 °C, and 6 mm wells were formed in the inoculated plates. The volume of 100 μL (100 mg/5 mL in DMSO), ceftriaxone sodium (20 mg/10 mL in DMSO) as a positive control, and pure DMSO as a negative control; 30 μL of the sample solution was incorporated into these wells. These primed plates were incubated at 37 °C for 24 h prior to record inhibitory zones in millimeters.

Escherichia coli = test: Antibacterial agar-well diffusion; type: cell-based; conditions: sample 100 mg/5 mL in DMSO; ceftriaxone sodium 20 mg/10 mL; 37 °C, 24 h; 6 mm wells
Protocol: as §3

Pseudomonas aeruginosa = test: Antibacterial agar-well diffusion; type: cell-based; conditions: sample 100 mg/5 mL in DMSO; ceftriaxone sodium 20 mg/10 mL; 37 °C, 24 h; 6 mm wells
Protocol: as §3

Staphylococcus aureus = test: Antibacterial agar-well diffusion; type: cell-based; conditions: sample 100 mg/5 mL in DMSO; ceftriaxone sodium 20 mg/10 mL; 37 °C, 24 h; 6 mm wells
Protocol: as §3

Compound	%Age Inhibition ± SEM [1] [%]	%ge inh. of Phenylephrine Cont. (±SEM) (thoracic aorta segments) [%]	Mean of Systolic Blood Pressure ± SEM (conscious rats)	IC50 (urease; urease, pH 7.0, 37 °C, read-out: IC50 ± SEM) [nM]	Zone of Inhibition Gram +ve Bacteria B.pumilus Mean ± SEM (Bacillus pumilus) [millimeters]	Zone of Inhibition Gram -Ve Bacteria E. coli Mean ± SEM (Escherichia coli) [millimeters]	Zone of Inhibition Gram -Ve Bacteria P. aeruginosa Mean ± SEM (Pseudomonas aeruginosa) [millimeters]	Zone of Inhibition Gram +ve Bacteria S. aureus Mean ± SEM (Staphylococcus aureus) [millimeters]	inhibition at 100 µM (thoracic aorta segments; Rattus norvegicus, read-out: %ge inh. of Phenylephrine Cont. (±SEM)) [%]	IC50 (urease) [nM]
CCCCC(=O)N(Cc1ccc(-c2ccccc2-c2nn[nH]n2)cc1)C(C(=O)Oc1ccc2ccccc2c1)C(C)C (stereo not shown) [AV10, naphthalen-2-yl 2-(N-((2′-(2H-tetrazol-5-yl)-[1,1′-biphenyl]-4 yl)methyl)pentanamido)-3methyl butanoate]	94.4 ± 0.52	69.8 ± 6.7	75.82 ± 4.12	2050 ± 1050	10.30 ± 0.21	10.40 ± 0.56	12.63 ± 0.63	12.13 ± 0.37	–	–
CCCCC(=O)N(Cc1ccc(-c2ccccc2-c2nn[nH]n2)cc1)C(C(=O)Oc1ccccc1C(=O)O)C(C)C (stereo not shown) [AV11, 2-((2-(N-((2′-(2H-tetrazole-5-yl)-[1,1′-biphenyl]-4yl)methyl)pentanamido)-3-methylbutanoyl)oxy) benzoic acid]	95.6 ± 0.54	–	72.71 ± 3.21	–	10.66 ± 0.52	10.01 ± 0.55	11.46 ± 0.53	12.53 ± 0.68	70.8 ± 7.7	2190 ± 170
